As a reminder, the pIC50 is the IC50 on a negative log10 scale, so that one unit is a factor of ten. Read a high pIC50 as a low IC50.

Holding throughout (type): cell-based
For one assay, the target named is human TLR7 (Homo sapiens (Human), UniProt Q9NYK1). The assay can be described thus: TLR7 inhibition reporter assay (HEK-Blue, SEAP). The settings on record: HEK-Blue cells overexpressing human TLR7, gardiquimod 7.5 μM stimulation. In a few lines:
(§1)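 Reporter cells, NF-κB/AP-1-driven SEAP; cmpd 0.05 nM–50 μM final, 30 min RT pre-treat; stim gardiquimod 7.5 μM (TLR7), R848 15.9 μM (TLR8), ODN2006 5 nM (TLR9); 22 h 37 °C; % inhibition of SEAP signal.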
In general terms: A reporter such as luciferase makes a cellular process visible.

The target of a further assay is human TLR8 (Homo sapiens (Human), UniProt Q9NR97). The assay can be described thus: TLR8 inhibition reporter assay (HEK-Blue, SEAP). The settings on record: HEK-Blue cells overexpressing human TLR8, R848 15.9 μM stimulation. An outline of the steps: as §1
The target of the next assay is human TLR9 (Homo sapiens (Human), UniProt Q9NR96). The assay can be described thus: TLR9 inhibition reporter assay (HEK-Blue, SEAP). The settings on record: HEK-Blue cells overexpressing human TLR9, ODN2006 5 nM stimulation. An outline of the steps: as §1

pIC50: −log10 of the molar value.

Chain of human TLR8 (Q9NR97 27-1041): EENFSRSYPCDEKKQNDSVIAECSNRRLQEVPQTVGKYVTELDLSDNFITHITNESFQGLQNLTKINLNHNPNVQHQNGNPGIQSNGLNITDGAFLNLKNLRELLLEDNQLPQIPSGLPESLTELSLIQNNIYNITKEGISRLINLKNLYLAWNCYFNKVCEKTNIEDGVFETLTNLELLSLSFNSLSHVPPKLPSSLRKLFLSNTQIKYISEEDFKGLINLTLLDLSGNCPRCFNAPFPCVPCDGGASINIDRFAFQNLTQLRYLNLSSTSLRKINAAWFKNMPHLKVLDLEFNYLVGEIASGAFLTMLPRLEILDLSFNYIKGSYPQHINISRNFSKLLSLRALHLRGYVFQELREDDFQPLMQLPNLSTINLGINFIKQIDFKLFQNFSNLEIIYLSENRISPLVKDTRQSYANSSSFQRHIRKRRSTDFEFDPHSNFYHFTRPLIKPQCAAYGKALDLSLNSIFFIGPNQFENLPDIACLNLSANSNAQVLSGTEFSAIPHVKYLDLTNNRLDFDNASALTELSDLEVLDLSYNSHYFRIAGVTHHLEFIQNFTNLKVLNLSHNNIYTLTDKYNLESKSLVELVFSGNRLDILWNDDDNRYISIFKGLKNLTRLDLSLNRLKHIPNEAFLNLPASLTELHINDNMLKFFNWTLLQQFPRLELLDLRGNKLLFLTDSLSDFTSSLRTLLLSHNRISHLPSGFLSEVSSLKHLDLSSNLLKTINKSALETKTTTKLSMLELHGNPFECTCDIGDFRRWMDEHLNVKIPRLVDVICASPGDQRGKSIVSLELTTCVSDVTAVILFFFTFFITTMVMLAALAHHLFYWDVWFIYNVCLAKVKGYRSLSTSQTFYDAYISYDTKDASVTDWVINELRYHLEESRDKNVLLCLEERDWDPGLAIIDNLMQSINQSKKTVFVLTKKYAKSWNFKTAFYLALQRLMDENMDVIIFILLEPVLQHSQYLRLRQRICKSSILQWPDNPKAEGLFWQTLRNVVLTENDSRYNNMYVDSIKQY
Chain of human TLR7 (Q9NYK1 27-1049): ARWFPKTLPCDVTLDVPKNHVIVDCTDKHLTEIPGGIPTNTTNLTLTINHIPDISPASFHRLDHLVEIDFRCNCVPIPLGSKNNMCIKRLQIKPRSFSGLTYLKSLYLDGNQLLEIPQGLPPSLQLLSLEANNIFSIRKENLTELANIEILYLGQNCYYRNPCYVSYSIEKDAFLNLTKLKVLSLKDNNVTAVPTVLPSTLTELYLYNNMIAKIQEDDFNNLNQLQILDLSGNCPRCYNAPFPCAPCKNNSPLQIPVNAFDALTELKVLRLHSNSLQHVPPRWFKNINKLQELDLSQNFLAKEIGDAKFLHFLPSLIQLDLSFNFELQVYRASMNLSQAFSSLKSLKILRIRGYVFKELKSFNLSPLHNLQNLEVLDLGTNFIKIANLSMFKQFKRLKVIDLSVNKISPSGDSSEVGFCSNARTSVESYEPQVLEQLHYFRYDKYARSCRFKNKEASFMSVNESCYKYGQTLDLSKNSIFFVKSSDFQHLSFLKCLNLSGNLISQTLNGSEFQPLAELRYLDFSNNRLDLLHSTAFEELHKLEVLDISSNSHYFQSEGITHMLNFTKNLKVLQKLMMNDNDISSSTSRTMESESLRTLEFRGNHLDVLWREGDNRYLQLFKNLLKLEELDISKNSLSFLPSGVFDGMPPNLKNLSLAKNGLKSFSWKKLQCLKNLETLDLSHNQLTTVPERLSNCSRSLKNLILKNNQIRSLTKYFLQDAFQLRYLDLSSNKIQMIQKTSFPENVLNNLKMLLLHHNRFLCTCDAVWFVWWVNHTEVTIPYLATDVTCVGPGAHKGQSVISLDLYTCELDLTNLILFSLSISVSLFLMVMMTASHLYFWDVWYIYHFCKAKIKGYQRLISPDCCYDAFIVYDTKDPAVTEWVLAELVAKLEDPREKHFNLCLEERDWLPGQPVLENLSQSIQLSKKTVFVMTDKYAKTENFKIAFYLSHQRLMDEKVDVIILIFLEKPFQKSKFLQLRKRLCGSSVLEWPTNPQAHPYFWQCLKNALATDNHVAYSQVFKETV
Chain of human TLR9 (Q9NR96 26-1032): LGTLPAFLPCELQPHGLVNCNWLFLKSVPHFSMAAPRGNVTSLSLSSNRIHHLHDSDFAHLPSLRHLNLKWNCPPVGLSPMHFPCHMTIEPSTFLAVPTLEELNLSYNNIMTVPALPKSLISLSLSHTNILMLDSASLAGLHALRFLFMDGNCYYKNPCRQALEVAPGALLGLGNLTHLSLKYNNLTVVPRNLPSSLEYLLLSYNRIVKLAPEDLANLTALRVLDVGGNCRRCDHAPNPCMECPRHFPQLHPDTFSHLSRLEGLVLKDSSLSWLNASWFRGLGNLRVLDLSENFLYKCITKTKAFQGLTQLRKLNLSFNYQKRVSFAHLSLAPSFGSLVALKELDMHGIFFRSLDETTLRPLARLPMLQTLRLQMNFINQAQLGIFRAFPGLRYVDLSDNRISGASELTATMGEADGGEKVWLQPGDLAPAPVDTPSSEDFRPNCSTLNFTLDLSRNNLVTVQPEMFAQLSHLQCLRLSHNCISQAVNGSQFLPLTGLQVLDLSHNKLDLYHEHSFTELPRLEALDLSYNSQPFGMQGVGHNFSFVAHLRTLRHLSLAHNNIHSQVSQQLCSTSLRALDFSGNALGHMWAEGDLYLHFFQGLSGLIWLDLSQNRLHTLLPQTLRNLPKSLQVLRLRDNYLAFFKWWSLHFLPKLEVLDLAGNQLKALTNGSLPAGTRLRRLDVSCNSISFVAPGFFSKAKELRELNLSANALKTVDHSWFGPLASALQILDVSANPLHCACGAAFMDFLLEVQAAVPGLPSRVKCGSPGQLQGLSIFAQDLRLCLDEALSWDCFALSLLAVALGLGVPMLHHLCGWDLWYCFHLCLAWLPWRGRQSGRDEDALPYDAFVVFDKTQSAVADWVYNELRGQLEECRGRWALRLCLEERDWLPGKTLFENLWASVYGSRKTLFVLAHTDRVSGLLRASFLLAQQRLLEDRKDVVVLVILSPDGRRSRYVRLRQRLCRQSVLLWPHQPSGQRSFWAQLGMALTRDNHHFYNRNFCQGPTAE

Regarding `COc1ccc(-c2[nH]c3ccc(-c4cccc(C(=O)N5CC6CNCC6C5)c4)cc3c2CC(F)(F)F)cc1OC` (stereo not drawn) [Example 42, (3-(2-(3,4-dimethoxyphenyl)-3-(2,2,2-trifluoroethyl)-1H-indol-5-yl)phenyl)(hexahydropyrrolo[3,4-c]pyrrol-2(1H)-yl)methanone], the pIC50 was 6.35 against human TLR7, 7.57 against human TLR8 and 6.15 against human TLR9.
As to `COc1ccc(-c2[nH]c3ccc(-c4nnc(CCN(C)C)o4)cc3c2C(C)C)cc1OC` [Example 43, 2-(5-(2-(3,4-dimethoxyphenyl)-3-isopropyl-1H-indol-5-yl)-1,3,4-oxadiazol-2-yl)-N,N-dimethylethan-1-amine], the pIC50 was 7.40 against human TLR7, 8.70 against human TLR8 and 5.84 against human TLR9.
In the case of `COc1ccc(-c2[nH]c3ccc(-c4nnc(CN(C)C)o4)cc3c2C(C)C)cc1OC` [Example 44, 1-(5-(2-(3,4-dimethoxyphenyl)-3-isopropyl-1H-indol-5-yl)-1,3,4-oxadiazol-2-yl)-N,N-dimethylmethanamine], the pIC50 is 6.58 against human TLR7, 7.85 against human TLR8 and 4.92 at human TLR9.
With `COc1ccc(-c2[nH]c3ccc(-c4nnc(Cc5c[nH]cn5)o4)cc3c2C(C)C)cc1OC` [Example 45, 2-((1H-imidazol-4-yl)methyl)-5-(2-(3,4-dimethoxyphenyl)-3-isopropyl-1H-indol-5-yl)-1,3,4-oxadiazole], the pIC50 is 6.81 on human TLR7, 7.80 against human TLR8 and < 4.30 at human TLR9.
For `COc1ccc(-c2[nH]c3ccc(-c4nnc(C5CCCN(C)C5)o4)cc3c2C(C)C)cc1OC` (stereo not drawn) [Example 46, 2-(2-(3,4-dimethoxyphenyl)-3-isopropyl-1H-indol-5-yl)-5-(1-methylpiperidin-3-yl)-1,3,4-oxadiazole], in that order: 7.41, 8.21 and 5.97.
For `COc1ccc(-c2[nH]c3ccc(-c4nnc(CCn5ccnc5)o4)cc3c2C(C)C)cc1OC` [Example 47, 2-(2-(1H-imidazol-1-yl)ethyl)-5-(2-(3,4-dimethoxyphenyl)-3-isopropyl-1H-indol-5-yl)-1,3,4-oxadiazole], the pIC50 was 6.71 on human TLR7, 7.09 against human TLR8 and 4.72 against human TLR9.
In the same order, the values of `COc1ccc(-c2[nH]c3ccc(-c4nnc(C5CCNC5)o4)cc3c2C(C)C)cc1OC` (stereo not drawn) [Example 48, 2-(2-(3,4-dimethoxyphenyl)-3-isopropyl-1H-indol-5-yl)-5-(pyrrolidin-3-yl)-1,3,4-oxadiazole] are 7.47, 7.96 and 5.63.
In the same order, the values of `CN[C@@H](C)c1nnc(-c2ccc3[nH]c(-c4ccc(OC)c(OC)c4)c(C(C)C)c3c2)o1` [Example 49, (S)-1-(5-(2-(3,4-dimethoxyphenyl)-3-isopropyl-1H-indol-5-yl)-1,3,4-oxadiazol-2-yl)-N-methylethan-1-amine] are 6.77, 7.96 and 4.94.
Turning to `COc1ccc(-c2[nH]c3ccc(-c4nnc(C[C@@H]5CCCCN5)o4)cc3c2C(C)C)cc1OC` [Example 50, (S)-2-(2-(3,4-dimethoxyphenyl)-3-isopropyl-1H-indol-5-yl)-5-(piperidin-2-ylmethyl)-1,3,4-oxadiazole], the pIC50 against human TLR7 is 7.36; against human TLR8, 8.23; against human TLR9 it was 5.97.
Consider `COc1ccc(-c2[nH]c3ccc(-c4nnc(C[C@@H]5CCCN5)o4)cc3c2C(C)C)cc1OC` [Example 51, (S)-2-(2-(3,4-dimethoxyphenyl)-3-isopropyl-1H-indol-5-yl)-5-(pyrrolidin-2-ylmethyl)-1,3,4-oxadiazole], for which the pIC50 against human TLR7 is 7.22; against human TLR8, 8.11; on human TLR9 it was 5.97.

Source of the values: patent US11420958B2, “Aryl and heteroaryl substituted indole compounds” (BRISTOL-MYERS SQUIBB COMPANY, priority 2017, dated 2022).
